Here are results for three compounds from ChEMBL document CHEMBL1151615, “Trichothecenes, 1: The synthesis of 4-deoxyverrucarol from verrucarol and diacetoxyscirpenol” (J Nat Prod, 1984).

≈ marks a conversion by molar mass, not a printed value.

Data set [1] in a line: Toxicity in mouse assessed as 50% inhibition of protein synthesis. Type of data set: organism-based. The settings on record: in vivo, read-out: Activity.
For another data set, the species on record is Mus musculus. In words: Skin toxicity in mouse. The settings on record: in vivo. In kind it is organism-based.

As to `CC1=C[C@H]2O[C@@H]3CC[C@](C)([C@@]2(CO)CC1)[C@]31CO1` [DEOXYVERRUCAROL], in data set [1], the IC50 came to 62.2 µg/mL (≈ 248 µM). Also, in the data set listed under Mus musculus, the MED result is “>= 500 ng”.
For `CC(=O)OC[C@]12C[C@H](OC(=O)CC(C)C)C(C)=C[C@H]1O[C@@H]1[C@H](O)[C@@H](OC(C)=O)[C@@]2(C)[C@]12CO2` [T-2 TOXIN], in that order: 0.005 µg/mL (≈ 0.0107 µM) and 50.2 ng.
Regarding `CC1=C[C@H]2O[C@@H]3C[C@@H](O)[C@](C)([C@@]2(CO)CC1)[C@]31CO1` [VERRUCAROL], in data set [1], the IC50 was determined as 15.8 µg/mL (≈ 59.3 µM). Besides, the MED entry in the data set listed under Mus musculus is listed as “>= 500 ng”.
